Data: patent US12453722B2, “Maleate of nicotinyl alcohol ether derivative, crystal form thereof, and application thereof” (INSTITUTE OF MATERIA MEDICA, CHINESE ACADEMY OF MEDICAL …, priority 2019, dated 2025)
Several values for one entry are separate records, joined by “and”; a condition that tells them apart may be missing. Equal values may be shown once. Marks after values point to notes of the source that are not given here.

Key:
[1] = log P (physical and chemical properties); type: physicochemical
[2] = Influencing factor test (stability at high temperature, high humidity, illumination); type: physicochemical
Experimental: When the temperature rose to the top of DSC endothermic peak (about 175° C.), the weight loss was obvious, which was the weight loss caused by the melting decomposition of the sample. The DSC endothermic peak was the decomposition point of the compound of Example 2. 4.
• (1) Physical and chemical properties • Appearance: white solid • Melting point: 174.68° C.
The compound of Example 2 was stable under the conditions of illumination, high temperature and high humidity.

mouse melanoma B16F10 = assay: In vivo antitumor effect, subcutaneous transplanted tumor model of mouse melanoma B16F10; conditions: for TGI %: B16F10, TGI=(1-T/C)×100 by tumor weight
Experimental: The in vivo antitumor effects of the compound of Example 1 and the compound of Example 2 as PD-L1 inhibitors on mouse melanoma B16F10 were evaluated on the subcutaneous transplanted tumor model of mice.
(§1) Experimental steps: the subcultured B16F10 tumor strain was ground with a homogenizer, washed twice with sterile normal saline and counted, and the cell concentration of tumor cell suspension was adjusted with normal saline to 9×10^6/ml. 0.2 ml of the cell suspension was inoculated into the right armpit of C57BL/6J mice and the day was recorded as day 0. The next day after inoculation, the animals were randomly divided into groups, weighed and administered. The mice in the solvent control group were administrated with 0.5% CMC orally every day. […] The compounds to be tested were administered orally once a day. The animals were weighed and killed during treatment. The tumor tissues were stripped, weighed and photographed. Finally, the tumor inhibition rates were calculated to evaluate the intensity of antitumor effect.
Calculation and statistical method: tumor proliferation inhibition rate TGI (%): TGI=(1-T/C)×100. (T: tumor weight in the treatment group; C: tumor weight in the negative control group). Statistical method: Graphpad was used for data statistical analysis, and One-way ANOVA test was used, * P<0.05, * * P<0.01, * * * P<0.001.

mouse colon cancer MC38 = assay: In vivo antitumor effect, subcutaneous transplanted tumor model of mouse colon cancer MC38; conditions: for Tumor weight (g) X ± SD / Body weight (g) X ± SD, End / Body weight (g) X ± SD, Start: MC38, C57BL/6J mice; for TGI %: MC38, TGI=(1-T/C)×100 by tumor weight
Experimental: The in vivo antitumor effects of the compound of Example 1 and the compound of Example 2 as PD-L1 inhibitors on mouse colon cancer MC38 were evaluated on the subcutaneous transplanted tumor model of mice.
as §1, with “MC38” for “B16F10”, “9×10^6/ml,” for “9×10^6/ml.”
(§2) Calculation and statistical method: tumor proliferation inhibition rate TGI (%): TGI=(1-T/C)×100. (T: tumor weight in the treatment group: C: tumor weight in the negative control group). Statistical method: Graphpad was used for data statistical analysis, and One-way ANOVA test was used, * P<0.05, * * P<0.01, * * * P<0.001.

[3] = tested on: human lung cancer NCI-H460; assay: In vivo antitumor effect, human lung cancer NCI-H460 model in NSG mice reconstructed by human immune system; conditions: for Tumor volume X ± SD, Day 1 / Tumor volume X ± SD, Day 20 / Tumor weight (g) X ± SD: NCI-H460, NSG mice with human PBMCs; for TGI %: NCI-H460, TGI=(1-T/C)×100 by tumor weight
Experimental: The in vivo antitumor effects of the compound of Example 1 and the compound of Example 2 as PD-L1 inhibitors were evaluated on the NCI-H460 model of human lung cancer in NSG tumor-bearing mice reconstructed by human immune system. […]
Experimental steps: PBMCs were obtained by isolation of fresh human leukocytes, then inoculated into NSG mice through caudal vein, and each mouse was inoculated with 1×10^7. On the third day. NCI-H460 tumor cells were inoculated into the armpit of mice, and each mouse was inoculated with 1×10^6. After the tumors grew to 100˜300 mm^3, the mice were administered in groups. The mice in the solvent control group were administrated with 0.5% CMC orally every day. […] The compounds to be tested were administered orally once a day. The animals were weighed and killed during treatment. The tumor tissues were stripped, weighed and photographed. Finally, the tumor inhibition rates were calculated to evaluate the intensity of antitumor effect.
as §2

[4] = tested on: pleural mesothelioma (PM); conditions: 25 patients with pleural mesothelioma (PM); cited from earlier work
[5] = 5 × 14 mg/kg, oral once a day, B16F10, C57BL/6J mice
[6] = 10 × 14 mg/kg, oral once a day, B16F10, C57BL/6J mice
[7] = 2.5 × 14 mg/kg, oral once a day
[8] = 80 × 1 mg/kg, intraperitoneal, B16F10, C57BL/6J mice, 1 mg/kg

CC(C)OC(=O)[C@H](CO)NCc1cc(Cl)c(OCc2cccc(-c3ccccc3)c2Br)cc1OCc1cccnc1.O=C(O)/C=C\C(=O)O [Example 2, isopropyl (S)-N-(2-(pyridine-3-yl-methoxy)-4-(2-bromo-3-phenylbenzyloxy)-5-chlorobenzyl) serinate maleate]
log P [1]: 3.2 | Appearance ([2]; 60° C., 10 days): white | Chiral impurities (%) ([2]; 60° C., 10 days): 0.2% | Melting point (DSC method, ° C.) ([2]; 60° C., 10 days): 174.64 °C | Purity (%) ([2]; 60° C., 10 days): 98.7% | Related substances (%) ([2]; 60° C., 10 days): 1.3% | Appearance ([2]; Illumination, 10 days): white | Chiral impurities (%) ([2]; Illumination, 10 days): 0.2% | Melting point (DSC method, ° C.) ([2]; Illumination, 10 days): 174.60 °C | Purity (%) ([2]; Illumination, 10 days): 98.6% | Related substances (%) ([2]; Illumination, 10 days): 1.4% | Appearance ([2]; Initial): white | Chiral impurities (%) ([2]; Initial): 0.2% | Melting point (DSC method, ° C.) ([2]; Initial): 174.68 °C | Purity (%) ([2]; Initial): 98.7% | Related substances (%) ([2]; Initial): 1.3% | Appearance ([2]; RH 92.5%, 10 days): white | Chiral impurities (%) ([2]; RH 92.5%, 10 days): 0.2% | Melting point (DSC method, ° C.) ([2]; RH 92.5%, 10 days): 174.57 °C | Purity (%) ([2]; RH 92.5%, 10 days): 98.7% | Related substances (%) ([2]; RH 92.5%, 10 days): 1.3% | Stability under illumination, high temperature and high humidity ([2]; illumination, 60° C., RH 92.5%, 10 days): stable | Tumor weight (g) X ± SD (mouse melanoma B16F10; [5]): 1.39 ± 0.84* g | TGI % (mouse melanoma B16F10; 5 × 14 mg/kg, oral once a day): 40% | Tumor weight (g) X ± SD (mouse melanoma B16F10; [6]): 1.04 ± 0.66** g | TGI % (mouse melanoma B16F10; 10 × 14 mg/kg, oral once a day): 55% | Comparison of tumor inhibition rate at the same dosage (mouse melanoma B16F10; Tumor model B16F10): Compound of the Example 2 (maleate) > Compound | Tumor weight (g) X ± SD (mouse colon cancer MC38; [7]): 1.13 ± 0.78 g | TGI % (mouse colon cancer MC38; [7]): 34% | Tumor weight (g) X ± SD (mouse colon cancer MC38; 5 × 14 mg/kg, oral once a day): 0.42 ± 0.39*** g | TGI % (mouse colon cancer MC38; 5 × 14 mg/kg, oral once a day): 75% | Tumor weight (g) X ± SD (mouse colon cancer MC38; 10 × 14 mg/kg, oral once a day): 0.73 ± 0.54** g | TGI % (mouse colon cancer MC38; 10 × 14 mg/kg, oral once a day): 57% | Comparison of tumor inhibition rate at the same dosage (mouse colon cancer MC38; Tumor model MC38): Compound of the Example 2 (maleate) > Compound | Tumor volume X ± SD, Day 1 ([3]; 15 × 14 mg/kg, oral once a day): 166.5 ± 24.5 | Tumor volume X ± SD, Day 20 ([3]; 15 × 14 mg/kg, oral once a day): 1405.2 ± 442.9 | TGI % ([3]; 15 × 14 mg/kg, oral once a day): 30.6% | Comparison of tumor inhibition rate at the same dosage ([3]; Tumor model NSG NCI-H460): Compound of the Example 2 (maleate) > Compound

O=P1(N(CCCl)CCCl)NCCCO1 (stereo not drawn) [CTX, cyclophosphamide]
Body weight (g) X ± SD, End (mouse melanoma B16F10; [8]): 19.2 ± 0.8 g and 17.5 ± 0.9 g | Body weight (g) X ± SD, Start (mouse melanoma B16F10; [8]): 16.94 ± 0.43 g and 16.9 ± 0.8 g | TGI % (mouse melanoma B16F10; 80 × 1 mg/kg, intraperitoneal, 1 mg/kg): 90% and 70% | Body weight (g) X ± SD, End (mouse colon cancer MC38; 40 × 1 mg/kg, intraperitoneal): 21.7 ± 1.4 g | Body weight (g) X ± SD, Start (mouse colon cancer MC38; 40 × 1 mg/kg, intraperitoneal): 18.8 ± 0.9 g | Tumor weight (g) X ± SD (mouse colon cancer MC38; 40 × 1 mg/kg, intraperitoneal): 1.30 ± 1.44** g | TGI % (mouse colon cancer MC38; 40 × 1 mg/kg, intraperitoneal): 67% | Body weight (g) X ± SD, End (mouse colon cancer MC38; 40 × 2 mg/kg, intraperitoneal): 24.5 ± 0.9 g | Body weight (g) X ± SD, Start (mouse colon cancer MC38; 40 × 2 mg/kg, intraperitoneal): 22.0 ± 0.8 g | Tumor weight (g) X ± SD (mouse colon cancer MC38; 40 × 2 mg/kg, intraperitoneal): 0.17 ± 0.10** g | TGI % (mouse colon cancer MC38; 40 × 2 mg/kg, intraperitoneal): 90% | Tumor volume X ± SD, Day 1 ([3]; 100 × 1 mg/kg, intraperitoneal): 165.4 ± 22.4 | Tumor volume X ± SD, Day 20 ([3]; 100 × 1 mg/kg, intraperitoneal): 556.5 ± 81.1 | Tumor weight (g) X ± SD ([3]; 100 × 1 mg/kg, intraperitoneal): 0.90 ± 0.15*** g | TGI % ([3]; 100 × 1 mg/kg, intraperitoneal): 66.9%

Keytruda: first FDA approved PD-1 monoclonal antibody, from Merck
disease control rate [4]: 76% | overall response rate (ORR) [4]: 28%

CC(C)OC(=O)[C@H](CO)NCc1cc(Cl)c(OCc2cccc(-c3ccccc3)c2Br)cc1OCc1cccnc1.Cl.Cl [Example 1, isopropyl (S)-N-[2-(pyridine-3-yl-methoxy)-4-(2-bromo-3-(phenyl)benzyloxy)-5-chlorobenzyl] serinate hydrochloride]
logP [1]: 2.4 | Appearance ([2]; 60° C., 5 days): off white powder | Melting point (DSC method, ° C.) ([2]; 60° C., 5 days): 118.69 °C | Purity (%) ([2]; 60° C., 5 days): 99.5% | Related substances (%) ([2]; 60° C., 5 days): 0.5% | Appearance ([2]; Illumination, 5 days): transparent bulk | Purity (%) ([2]; Illumination, 5 days): 96.0% | Related substances (%) ([2]; Illumination, 5 days): 4.0% | Stability under illumination conditions ([2]; Illumination, 5 days): unstable | Appearance ([2]; Initial): off white powder | Melting point (DSC method, ° C.) ([2]; Initial): 119.36 °C | Purity (%) ([2]; Initial): 99.5% | Related substances (%) ([2]; Initial): 0.5% | Purity (%) ([2]; RH 92.5%, 5 days): 99.5% | Appearance ([2]; RH 92.5%, 5 days, hydrochloride): colorless viscous liquid | Moisture absorption ([2]; high humidity of RH92.5%, 5 days): serious moisture absorption | Stability under high temperature conditions ([2]; high temperature of 60° C., 5 days): stable | Tumor weight (g) X ± SD (mouse melanoma B16F10; [5]): 3.11 ± 0.98* g | TGI % (mouse melanoma B16F10; 5 × 14 mg/kg, oral once a day): 11% | Tumor weight (g) X ± SD (mouse melanoma B16F10; [6]): 3.04 ± 0.94** g | TGI % (mouse melanoma B16F10; 10 × 14 mg/kg, oral once a day): 13% | Tumor weight (g) X ± SD (mouse colon cancer MC38; 5 × 14 mg/kg, oral once a day): 3.21 ± 0.28*** g | TGI % (mouse colon cancer MC38; 5 × 14 mg/kg, oral once a day): 18% | Tumor weight (g) X ± SD (mouse colon cancer MC38; 10 × 14 mg/kg, oral once a day): 2.86 ± 1.36** g | TGI % (mouse colon cancer MC38; 10 × 14 mg/kg, oral once a day): 27% | Tumor volume X ± SD, Day 1 ([3]; 15 × 14 mg/kg, oral once a day): 161.9 ± 21.0 | Tumor volume X ± SD, Day 20 ([3]; 15 × 14 mg/kg, oral once a day): 1441.4 ± 337.6 | Tumor weight (g) X ± SD ([3]; 15 × 14 mg/kg, oral once a day): 2.06 ± 0.22 g | TGI % ([3]; 15 × 14 mg/kg, oral once a day): 24.7%
